Reference: patent US20240327407A1, “NOVEL INHIBITORS OF AUTOTAXIN” (CADILA HEAL THCARE LIMITED, priority 2021, published 2024)

biological target: ATX (Mus musculus (Mouse), UniProt Q9R1E6); test: Mice serum ATX inhibitory activity (IC50 determination); type: biochemical
Protocol: ATX Inhibitory activity was determined in a biochemical or whole blood assay as described previously (Bretschneider, T. et al., SLAS Discov 2017, 22, 425). The biochemical reaction consisted of 50 mM Tris (pH 8.0), 3 mM KCl, 1 mM CaCl2, 1 mM Mg Cl2, […] NaCl and 0.1% bovine serum albumin, which was supplemented with 5 nM recombinant rat ATX, 5 μM 18:1 LPC and the test compound (0.1-10 μM). The reaction was stopped at 2 h by the addition of butanol, prior to the RapidFire-MS-based analysis.
The whole blood assay consisted of 45 μL μL heparinized mice/rat whole blood and the test compound (0.12-100 μM). The reaction was stopped after 1 h at 37° C. by addition of 100 μL 40 mM disodium hydrogen phosphate buffer containing 30 mM citric acid (pH 4) and 1 μM 17:0 LPA (internal standard). Afterwards the samples were treated a described above and analysed by LC-MS/MS. The data was analyzed using graph pad prism (v 7.03) to arrive at the half-maximal inhibitory concentrations (IC50) of the test compounds.

**Q.** How did the IC50 turn out when `CC(C)C[C@@H](NC(=O)c1cc(C(F)(F)F)ccc1F)C(=O)N1CCC2(CC1)CN(C)CC2c1ccc(F)cc1` (stereo partly drawn) [Compound 147, 2-fluoro-N-((2R)-1-(4-(4-fluorophenyl)-2-methyl-2,8-diazaspiro[4.5]decan-8-yl)-4-methyl-1-oxopentan-2-yl)-5-(trifluoromethyl)benzamide] was run?
**A.** The IC50 was 4.1 nM.

**Q.** With `CC(C)[C@@H](NC(=O)c1cc(F)ccc1F)C(=O)N1CCC2(CC1)CN(C)CC2c1ccc(F)cc1` (stereo partly drawn) [Compound 149, 2,5-difluoro-N-((2R)-1-(4-(4-fluorophenyl)-2-methyl-2,8-diazaspiro[4.5]decan-8-yl)-3-methyl-1-oxobutan-2-yl)benzamide] as the molecule, how does the IC50 read?
**A.** The IC50 was 47.3 nM.

**Q.** For `CC(C)[C@@H](NC(=O)c1cc(Cl)ccc1Cl)C(=O)N1CCC2(CC1)CN(C)CC2c1ccc(F)cc1` (stereo partly drawn) [Compound 151, 2,5-dichloro-N-((2R)-1-(4-(4-fluorophenyl)-2-methyl-2,8-diazaspiro[4.5]decan-8-yl)-3-methyl-1-oxobutan-2-yl)benzamide], which IC50 is on record?
**A.** The IC50 was 130 nM.

**Q.** How did the IC50 turn out when `CC(C)[C@@H](NC(=O)c1nn(C)c2ccccc12)C(=O)N1CCC2(CC1)CN(C)CC2c1ccc(F)cc1` (stereo partly drawn) [Compound 153, N-((2R)-1-(4-(4-fluorophenyl)-2-methyl-2,8-diazaspiro[4.5]decan-8-yl)-3-methyl-1-oxobutan-2-yl)-1-methyl-1H-indazole-3-carboxamide] was run?
**A.** Its IC50 is 48.4 nM.

**Q.** With `Cc1ccnc(C(=O)N[C@@H](C(=O)N2CCC3(CC2)CN(C)CC3c2cccnc2)C(C)C)c1` (stereo partly drawn) [Compound 162, 4-methyl-N-((2R)-3-methyl-1-(2-methyl-4-(pyridin-3-yl)-2,8-diazaspiro[4.5]decan-8-yl)-1-oxobutan-2-yl)picolinamide] as the molecule, how does the IC50 read?
**A.** Its IC50 is 10.2 nM.

**Q.** Which IC50 does the source give for `CC(C)[C@@H](NC(=O)c1cc(C(F)(F)F)ccc1F)C(=O)N1CCC2(CC1)CC(=O)NCC2c1ccccc1` (stereo partly drawn) [Compound 163, 2-fluoro-N-((2R)-3-methyl-1-oxo-1-(10-oxo-7-phenyl-3,9-diazaspiro[5.5]undecan-3-yl)butan-2-yl)-5-(trifluoromethyl)benzamide] here?
**A.** Its IC50 is 3.5 nM.

**Q.** With `CC(C)[C@@H](NC(=O)c1cc(C(F)(F)F)ccc1F)C(=O)N1CCC2(CC1)CC(=O)NCC2c1ccc(F)cc1` (stereo partly drawn) [Compound 164, 2-fluoro-N-((2R)-1-(7-(4-fluorophenyl)-10-oxo-3,9-diazaspiro[5.5]undecan-3-yl)-3-methyl-1-oxobutan-2-yl)-5-(trifluoromethyl)benzamide] as the molecule, how does the IC50 read?
**A.** The IC50 was 6.5 nM.

**Q.** How did the IC50 turn out when `CC(C)[C@@H](NC(=O)c1cc(C(F)(F)F)ccc1F)C(=O)N1CCC2(CC1)CC(=O)N(C)CC2c1ccccc1` (stereo partly drawn) [Compound 174, 2-fluoro-N-((2R)-3-methyl-1-(9-methyl-10-oxo-7-phenyl-3,9-diazaspiro[5.5]undecan-3-yl)-1-oxobutan-2-yl)-5-(trifluoromethyl)benzamide] was run?
**A.** Its IC50 is 11.2 nM.

**Q.** For `CC(C)[C@@H](NC(=O)c1cc(C(F)(F)F)ccc1F)C(=O)N1CCC2(CC1)CC(=O)N(C)CC2c1ccc(F)cc1` (stereo partly drawn) [Compound 176, 2-fluoro-N-((2R)-1-(7-(4-fluorophenyl)-9-methyl-10-oxo-3,9-diazaspiro[5.5]undecan-3-yl)-3-methyl-1-oxobutan-2-yl)-5-(trifluoromethyl)benzamide], which IC50 is on record?
**A.** Its IC50 is 7.5 nM.

**Q.** With `CCN1CC(c2ccc(F)cc2)C2(CCN(C(=O)[C@H](NC(=O)c3cc(C(F)(F)F)ccc3F)C(C)C)CC2)CC1=O` (stereo partly drawn) [Compound 177, N-((2R)-1-(9-ethyl-7-(4-fluorophenyl)-10-oxo-3,9-diazaspiro[5.5]undecan-3-yl)-3-methyl-1-oxobutan-2-yl)-2-fluoro-5-] as the molecule, how does the IC50 read?
**A.** The IC50 was 17.2 nM.

**Q.** `CC(C)[C@H](NC(=O)c1cc(C(F)(F)F)ccc1F)C(=O)N1CCC2(CC1)CC(=O)N(C)CC2c1ccccc1` (stereo partly drawn) [Compound 185, 2-fluoro-N-((2S)-3-methyl-1-(9-methyl-10-oxo-7-phenyl-3,9-diazaspiro-[5.5]undecan-3-yl)-1-oxobutan-2-yl)-5-(trifluoromethyl)benzamide] was tested. Which IC50 did it give?
**A.** Its IC50 is 12 nM.

**Q.** For `Cc1ccnc(C(=O)N[C@@H](C(=O)N2CCC3(CC2)CC(=O)N(C)CC3c2ccccc2)C(C)C)c1` (stereo partly drawn) [Compound 194], which IC50 is on record?
**A.** The IC50 was 15.9 nM.

**Q.** `CC(C)[C@@H](NC(=O)c1cc(C(F)(F)F)ccc1F)C(=O)N1CCC2(CCN(C)CC2c2ccccc2)CC1` (stereo partly drawn) [Compound 220, 2-fluoro-N-((2R)-3-methyl-1-(9-methyl-7-phenyl-3,9-diazaspiro[5.5]-undecan-3-yl)-1-oxobutan-2-yl)-5-(trifluoromethyl)benzamide] was tested. Which IC50 did it give?
**A.** Its IC50 is 9.9 nM.

**Q.** How did the IC50 turn out when `CC(C)[C@@H](NC(=O)c1cc(C(F)(F)F)ccc1F)C(=O)N1CCC2(CCN(C)CC2c2ccc(F)cc2)CC1` (stereo partly drawn) [Compound 221, 2-fluoro-N-((2R)-1-(7-(4-fluorophenyl)-9-methyl-3,9-diazaspiro[5.5]-undecan-3-yl)-3-methyl-1-oxobutan-2-yl)-5-(trifluoromethyl)benzamide] was run?
**A.** The IC50 was 5.1 nM.

**Q.** How did the IC50 turn out when `CCc1nc2c(C)cc(N3CCN(CC(=O)N4CC(O)C4)CC3)cn2c1N(C)c1nc(-c2ccc(F)cc2)c(C#N)s1` [GLPG1690] was run?
**A.** Its IC50 is 508 nM.
